Measured values from US20200113852A1, “METHODS OF PATIENT SELECTION AND TREATING TRXR- OR PRDX-OVEREXPRESSED CANCERS” (TRIACT THERAPEUTICS, INC., priority 2017, published 2020).

How the values were obtained:
rat liver TrxR = rat liver TrxR (Rattus norvegicus, UniProt O89049); test: Electron paramagnetic resonance, DEPMPO spin trapping; conditions: 100 μM Iniparib, NADPH, aerobic
Method: Computer simulations of the spectra were performed using the program written by Rockenbauer and Korecz (25). […] Then the reaction mixture was transferred by aspiration into a gas permeable PTFE tubing (Extruded Sub-Lite-Wall®, inside diameter: 0.635 mm, wall thickness: 0.051 mm, Zeus Industrial Products Ltd., Ireland). The tubing was folded twice in a W-shape and inserted into a 4-mm EPR quartz tube for EPR analysis. […] To confirm the involvement of superoxide in the appearance of the EPR signal, 100 units of superoxide dismutase (SOD) were added to the incubation prior to TrxR addition. For anaerobic experiments, the reaction mixture was immediately transferred into the gas permeable tubing and nitrogen gas was flushed through a septum cap in the sealed EPR quartz tube during the whole experiment.

purified rat liver TrxR = target: T1, purified rat liver TrxR (Rattus norvegicus, UniProt O89049); test: In vitro TrxR activity (DTNB reduction assay); type: biochemical; conditions: 100 μM Iniparib, 200 μM NADPH, up to 120 min
T1 construct: Wild type TrxR purified from rat liver was from Sigma-Aldrich Chemicals; purchased Sigma-Aldrich Chemicals; host or cells: rat liver (tissue-purified)

MDA-MB-453 cells = test: Apoptosis and necrosis assay (DiOC2(3)/DAPI flow cytometry); type: cell-based, human; conditions: MDA-MB-453 without GSH depletion
Method: (§1) Cells were seeded in 6-well tissue culture plates (2.5×10^5 cells/well). MDA-MB-453 and HCT116 cells were first pre-treated or not for 48 h with 1 mM BSO. […] Cell-conditioned culture media, that may contain detached cells, were then collected and attached cells were trypsinized. Cells were combined with their corresponding conditioned media and collected by centrifugation at 1500 rpm for 10 min at 4° C. […] Cell- and DNA-associated fluorescence signals were quantified using a FACS-Aria (BD Biosciences) and data were analyzed with the […] software (BD Biosciences).

HCT116 cells = test: as above; type: cell-based, human
Method: as §1

TrxR2 = target: T2, TrxR2 (Homo sapiens, UniProt Q9NNW7); test: Mass spectrometry of immunoprecipitated TrxR2 modified by Iniparib in HCT116 cells; type: cell-based
T2 construct: TrxR1 and TrxR2 were immunoprecipitated from octylglucoside cell extracts (12 mg proteins); endogenous in cells; host or cells: HCT116 (BSO-pretreated)
Method: After separation by SDS-PAGE under reducing conditions and PageBlue® protein staining (Thermo scientific), bands of interest were excised, reduced with DTT, alkylated with iodoacetamide and in-gel digested with trypsin (Promega), according to the method of Shevchenko et al. (24). Peptides were extracted with 50 mM ammonium bicarbonate and 50% acetonitrile in 0.2% formic acid and analyzed by Nano LC-MS/MS after partial evaporation in a speed-vac concentrator. LC-MS/MS experiments were performed on an NanoAcquity UPLC (Waters) coupled to a hybrid LTQ Orbitrap Velos mass spectrometer (Thermo Fisher Scientific) equipped with a nanoelectrospray source. Tryptic digests were loaded onto a nanoAcquity UPLC Trap column (Symmetry C18, 5 μm, 180 μm×20 mm, Waters) and washed with 0.2% FA at 20 μl/min for 5 min. Peptides were then eluted on a C18 reverse-phase nanoAcquity column (BEH130 C18, 1.7 μm, 75 μm×250 mm, Waters) with a linear gradient of 7-30% solvent B (H2O/CH3CN/HCOOH, 10:90:0.2, by vol.) for 85 min, 30-90% solvent B for 10 min, and 90% solvent B for 5 min, at a flow rate of 250 nL/min. The mass spectrometer was operated in the data-dependent mode to automatically switch between MS and MS/MS acquisition. Survey full scan MS spectra (m/z 300-1,600) were acquired in the Orbitrap with a resolution of 60,000 at m/z 400. The AGC was set to 1×10^6 with a maximum injection time of 100 ms. The most intense ions (up to 20) were then isolated for fragmentation in the LTQ linear ion trap with normalized collision energy of 28% at the default activation q of 0.25 with an AGC of 5×10^3 and a maximum injection time of 200 ms. The dynamic exclusion time window was set to 80 s. […] The exact parent mass is the 12C isotope ion mass of the most intense isotopic pattern detected on the high resolution Orbitrap MS parallel scan and included in the MS/MS selection window. […]

[1] = Phase I clinical trial GBM, safety, DLT and MTD
Source text: It was a single arm, multi dose, dose escalating trial in newly diagnosed GBM patients. The total number of patients was 43, with about 5 patients per cohort. Patients who tolerated radiation (XRT) and temozolomide (TMZ) were recruited. Inclusion criteria included completion of XRT and TMZ without grade 3 or 4 toxicity and labs within acceptable range within 6 weeks of completing XRT. The end points included safety, maximum tolerated dose (MTD), and signal of activity.
Using modified continual reassessment method, MTD was defined for metronomic and standard dose TMZ.

T2 sequence (Q9NNW7 37-524): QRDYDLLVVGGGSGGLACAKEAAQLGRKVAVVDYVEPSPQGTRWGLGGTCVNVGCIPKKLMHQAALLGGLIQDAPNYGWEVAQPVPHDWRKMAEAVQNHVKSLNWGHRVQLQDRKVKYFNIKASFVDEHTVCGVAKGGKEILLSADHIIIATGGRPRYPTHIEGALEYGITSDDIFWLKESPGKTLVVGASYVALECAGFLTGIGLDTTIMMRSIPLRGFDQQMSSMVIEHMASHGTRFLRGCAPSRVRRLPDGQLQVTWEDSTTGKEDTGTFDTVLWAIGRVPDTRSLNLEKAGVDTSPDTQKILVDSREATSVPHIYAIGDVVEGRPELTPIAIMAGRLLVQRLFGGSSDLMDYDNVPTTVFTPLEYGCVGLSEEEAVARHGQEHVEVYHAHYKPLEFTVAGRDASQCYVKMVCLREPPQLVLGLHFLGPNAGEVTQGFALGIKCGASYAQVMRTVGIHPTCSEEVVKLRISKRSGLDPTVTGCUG
rat liver TrxR, sequence (O89049 whole entry): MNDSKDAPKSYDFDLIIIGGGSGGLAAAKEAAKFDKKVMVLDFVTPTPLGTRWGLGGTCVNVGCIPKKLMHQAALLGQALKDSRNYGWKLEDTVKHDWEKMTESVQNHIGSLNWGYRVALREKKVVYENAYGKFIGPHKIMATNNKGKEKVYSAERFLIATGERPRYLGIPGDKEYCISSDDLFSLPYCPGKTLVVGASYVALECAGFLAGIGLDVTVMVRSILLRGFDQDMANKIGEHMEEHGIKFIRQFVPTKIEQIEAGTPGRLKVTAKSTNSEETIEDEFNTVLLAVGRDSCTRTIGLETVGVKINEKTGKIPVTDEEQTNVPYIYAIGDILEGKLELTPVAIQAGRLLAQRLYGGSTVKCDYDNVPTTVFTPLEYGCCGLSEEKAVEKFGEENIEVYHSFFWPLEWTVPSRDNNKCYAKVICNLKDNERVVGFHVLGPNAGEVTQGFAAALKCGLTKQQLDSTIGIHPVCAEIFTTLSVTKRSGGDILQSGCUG
T1 sequence (O89049 whole entry): as above

Compound: NC(=O)c1ccc(I)c([N+](=O)[O-])c1 [Iniparib, 4-iodo-3-nitrobenzamide]
- DEPMPO/HOO• adduct signal (rat liver TrxR): five-fold
- DEPMPO/HO• adduct signal (rat liver TrxR): doubled
- TrxR reductase activity (purified rat liver TrxR): time-dependent inhibition of its reductase activity
- apoptotic phenotype induction (MDA-MB-453 cells): much slower than in HCT116 cells
- treatment time from which apoptotic phenotype clearly detected (HCT116 cells; GSH-depleted HCT116, 100 μM): 6 h
- cell death phenotype (HCT116 cells; GSH-depleted HCT116, 9 h, 100 μM): induced both necrotic and late apoptotic related phenotypes
- TrxR2 with one Iniparib adduct on Sec residue (TrxR2; 1 h): 5%
- TrxR2 with one Iniparib adduct on Sec residue (TrxR2; 4 h): 12%
- additional TrxR2 peptide modified on a cysteine residue (TrxR2; 4 h): < 1%
- Phase 2 dose defined ([1]; IV 2×/wk with metronomic TMZ): 8.6 mg/kg
- Phase 2 dose defined ([1]; IV 2×/wk with standard TMZ): 8 mg/kg
